Assay results from US20240366652A1, “OSTEOARTHRITIS PROGRESSION INHIBITOR AND PROGRESSION INHIBITION KIT” (KYUSHU UNIVERSITY, NATIONAL UNIVERSITY CORPORATION, priority 2021, published 2024).

Assays:
IL6 = IL6 mRNA expression in LPS-stimulated human OA cartilage cells (quantitative real-time PCR); type: cell-based; details: Amlexanox 100 μM and/or hyaluronic acid 1 mg/mL, 48 hours, LPS 10 μg/mL 6 hours, GAPDH internal standard
Protocol: (§1) Human cartilage cells were isolated and cultured from an excised cartilage fragment that is usually discarded after artificial knee joint replacement surgery. All donors provided consent to participate in the clinical research approved by the Ethics Review Committee. Due consideration was given to personal information of all donors in handling. Donor's knee joints were OA grade (Kellgren-lawrence) III to IV on X-rays.
(§2) Amlexanox (concentration in medium: 100 μM) and hyaluronic acid (concentration in medium: 1 mg/mL, weight-average molecular weight: 500,000 or more and 1,490,000 or less) were added to human OA cartilage cells and incubated for 48 hours. As a control, those that had been incubated for 48 hours without any administration, and those that were administered with Amlexanox (concentration in medium: 100 μM) and hyaluronic acid (concentration in medium: 1 mg/mL, weight-average molecular weight: 500,000 or more and 1,490,000 or less) and incubated for 48 hours were also prepared.
(§3) Human OA cartilage cells into which Amlexanox and hyaluronic acid were added were stimulated with lipopolysaccharide (LPS) (concentration in medium: 10 μg/mL) and incubated for 6 hours. Thereafter, mRNA was recovered from the above cells. After reverse transcription, quantitative real-time PCR was performed using LightCycler 2.0 system (Roche). GAPDH was used as an internal standard.

[1] = system: OA-induced mice (DMM model); test: Cartilage degeneration in OA-induced mice (DMM model), OARSI histopathological score after intraarticular administration; type: in vivo; details: intraarticular 10 μL every 5 days for 8 weeks, Amlexanox 100 μM, hyaluronic acid 10 mg/mL, versus physiological saline group, 8 weeks after surgery
Protocol: OA was induced in 12-week-old male mice (wild type mice and GRK5KO mouse) by removing the ligament, which connects and secures the medial meniscus to the tibia, to cause the knee joint instability (DMM model) (hereinafter, referred to as a “DMM group” in some cases). In addition, as a control, mice subjected to a sham operation by the same method without removing the ligament were also prepared (hereinafter, referred to as a “sham group” in some cases). Subsequently, immediately after the OA induction, four groups were classified as follows: a group administered with physiological saline (10 μL) every 5 days for 8 weeks; a group administered with a hyaluronic acid solution (10 mg/mL, 10 μL); a group administered with an Amlexanox solution (100 μM, 10 μL), a group administered with a mixed solution (10 μL) of
Amlexanox (100 μM) and hyaluronic acid (10 mg/mL) (see FIG. 2A). Knee joint tissue sections of each group at a time point of 8 weeks after OA induction surgery were stained with safranin O. The results are shown in FIG. 2B (staining image).
In addition, the severity degree of OA was quantified by evaluating the stained sections based on histopathological grade recommended by OARSI.
Using the same method as in Example 2, a mixed solution of Amlexanox (100 μM) and hyaluronic acid (10 mg/mL) was administered to OA-induced mice every […] for 8 weeks (see FIG. 3A). […]

[2] = after intraarticular administration; cited from earlier work
GRK5 = details: reported in Reference 2; cited from earlier work
ADAMTS4 = ADAMTS4 mRNA expression in LPS-stimulated human OA cartilage cells (quantitative real-time PCR); type: cell-based; details: Amlexanox 100 μM and/or hyaluronic acid 1 mg/mL, 48 hours, LPS 10 μg/mL 6 hours, GAPDH internal standard
Protocol: as §1, §2, §3

MMP13 = MMP13 mRNA expression in LPS-stimulated human OA cartilage cells (quantitative real-time PCR); type: cell-based; details: Amlexanox 100 μM and/or hyaluronic acid 1 mg/mL, 48 hours, LPS 10 μg/mL 6 hours, GAPDH internal standard
Protocol: as §1, §2, §3

For CC(C)c1ccc2oc3nc(N)c(C(=O)O)cc3c(=O)c2c1 [Amlexanox, 2-amino-7-isopropyl-5-oxo-5H-[1]benzopyrano [2,3-b]-pyridine-3-carboxylic acid], the “IL6 expression, control ratio” value (IL6) is given as 32.99%, the “OARSI score, control group ratio” value [1] is given as 56.95% and the “half-life in joint fluid / in the joint” value [2] is given as “several hours”. The “GRK5 inhibition (selectivity, in words)” value (GRK5) was “selectively inhibits GRK5”, the “ADAMTS4 expression, control ratio” value (ADAMTS4) was 42.04% and the “MMP13 expression, control ratio” value (MMP13) was 43.83%.
